In article PMC11981944 (Nature, 2025):
Read-outs that look alike come from different tables or passages of the source.

What was measured:
SARS-CoV-2 = assay type: cell-based
SARS-CoV-2 B.1.351 = assay type: in vivo; settings: SCID mice, no ritonavir
SARS-CoV-2 USA-WA1/2020 = test system: SARS-CoV-2 USA-WA1/2020; set-up: species or system Syrian hamsters (Mesocricetus auratus); settings: hamster, in vivo
[1] = test system: SARS-CoV-2 (strain BavPat1/2020); assay type: cell-based

| Compound | antiviral activity (in words) (SARS-CoV-2) | antiviral activity in vivo (in words) (SARS-CoV-2 B.1.351; 100 mg per kg twice a day) | antiviral activity in vivo (in words) (SARS-CoV-2 B.1.351; three-fold higher dose (300 mg per kg twice a day)) | lung parenchyma histology (in words) (SARS-CoV-2 USA-WA1/2020) | DMVs by TEM (in words) [1] |
| --- | --- | --- | --- | --- | --- |
| N#C[C@@]1(c2ccc3c(N)ncnn23)O[C@H](CO)[C@@H](O)[C@H]1O [GS-441524] | micromolar range | – | – | – | – |
| CC(C)(C)[C@H](NC(=O)C(F)(F)F)C(=O)N1C[C@H]2[C@@H]([C@H]1C(=O)N[C@H](C#N)C[C@@H]1CCNC1=O)C2(C)C [Nirmatrelvir] | – | devoid of antiviral activity | effective | nearly normal | no cells producing DMV clusters, virions or concentric membrane stacks could be detected |
